Results: PubChem BioAssay (NCI)
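Cells were grown in 96-well plates and exposed to each compound for 48 hours at five concentrations; endpoints were interpolated linearly between bracketing concentrations, or set to the highest concentration if not reached. GI50 is the concentration that inhibits growth by half. TGI marks complete inhibition of growth.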

Key:
Assay in all cases: inhibition of tumour cell growth, NCI panel, 48 h
SK-MEL-28 melanoma = test system: SK-MEL-28 melanoma
A549 NSCLC = test system: A549 NSCLC
U251 CNS = test system: U251 CNS
A498 renal = test system: A498 renal
HS 578T breast = test system: HS 578T breast
NCI/ADR-RES ovarian = test system: NCI/ADR-RES ovarian
NCI-H522 lung = test system: NCI-H522 lung
PC-3 prostate = test system: PC-3 prostate
T-47D breast = test system: T-47D breast
HOP-92 NSCLC = test system: HOP-92 NSCLC

Structure (SMILES) | GI50 (SK-MEL-28 melanoma) [µM] | TGI (SK-MEL-28 melanoma) [µM] | GI50 (A549 NSCLC) [µM] | TGI (A549 NSCLC) [µM] | GI50 (U251 CNS) [µM] | TGI (U251 CNS) [µM] | GI50 (A498 renal) [µM] | TGI (A498 renal) [µM] | GI50 (HS 578T breast) [µM] | TGI (HS 578T breast) [µM] | GI50 (NCI/ADR-RES ovarian) [µM] | TGI (NCI/ADR-RES ovarian) [µM] | GI50 (NCI-H522 lung) [µM] | TGI (NCI-H522 lung) [µM] | GI50 (PC-3 prostate) [µM] | TGI (PC-3 prostate) [µM] | GI50 (T-47D breast) [µM] | TGI (T-47D breast) [µM] | GI50 (HOP-92 NSCLC) [µM] | TGI (HOP-92 NSCLC) [µM]
O=C(CCl)c1ccc([N+](=O)[O-])o1 | 1.61 | 3.14 | 21.1 | 54.4 | 1.95 | 4.37 | 13.6 | 27.5 | 2.72 | 8.66 | 3.51 | 23.8 | 2.81 | > 21.1 | 2.15 | 6.34 | 1.89 | 4.78 |  | 
CCOC(=O)c1c2c(n(CC(C)C)c1C)-c1nc[nH]c1C(=O)C2=O | 19.3 | 33.4 | 14.9 | 28.1 | 14.2 | 27.2 | 15.6 | 29 | 38.9 | > 100 |  |  | 15.7 | 29.4 |  |  | 3.3 | 14.3 | 3.82 | 16.2
O=C(CCN1CCCC1)Nc1ccc2c(NCc3ccc(F)cc3)c3ccccc3nc2c1 | 1.47 | 2.88 | 0.384 | 1.79 | 0.462 | 1.88 | 0.733 | 2.26 |  |  | 9.11 | 43.9 | 0.394 | 1.75 | 0.479 | 1.9 | 0.768 | 3.22 | 0.366 | 2.07
CC12CCC(=O)C(O1)C1C(=O)c3cc4ccccc4cc3C(=O)C12 (configuration not stated) | 20.3 | 74.4 | 32.4 | > 100 | 19 | 43.7 |  |  | 28.7 | 73.1 | 21.3 | 57.2 | 21.9 | 52.3 | 16.8 | 43.4 | 14.9 | 39.4 | 13.9 | 29.7
NC(=O)OCC(COc1ccc(Cl)cc1)OC(=O)c1ccccc1Cl (configuration not stated) |  | 37.7 |  | 75.8 |  | 27.6 |  | > 100 |  |  |  |  |  | 31.9 |  |  |  |  |  | 45.1
COc1cc(/C=C\c2ccccn2)cc(OC)c1OC |  | > 100 |  | > 100 |  | > 100 |  | > 100 |  |  |  |  |  | > 100 |  |  |  |  |  | > 100
CCOP(=O)(OCC)C1CCCCOC1=O (configuration not stated) |  | > 100 |  | > 100 |  | > 100 |  | > 100 |  |  |  |  |  |  |  |  |  |  |  | 
COc1cccc(OC(=O)c2ccccc2Nc2ccnc(C(F)(F)F)c2)c1 | 12.7 | > 100 | 3.18 | 20.7 | 2.86 | 11 |  |  | 4.85 | > 100 |  |  | 7.61 | > 100 | 3.25 | > 100 | 50.5 | > 100 | 5.77 | 60.4
C=C1C(=O)OC2CC3(C)C=CC(=O)C(=C)C3CC12 (configuration not stated) |  | 3.48 |  | 20.4 |  | 13.5 |  | 19.5 |  |  |  |  |  | 1.69 |  |  |  |  |  | 3.49
Nc1cc(=O)[nH]c(SC2=NC(N)CC(O)C2)n1 (configuration not stated) |  | > 100 |  |  |  | > 100 |  |  |  |  |  |  |  | > 100 |  |  |  |  |  | > 100
CC1CC2C(=O)NC(=O)C2c2[nH]c3ccccc3c21 (configuration not stated) |  |  |  | > 100 |  | > 100 |  |  |  |  |  |  |  | > 100 |  |  |  |  |  | > 100
Cc1ccc2c(c1)C1(C)OC(CC(N)C1O)O2 (configuration not stated) |  | > 100 |  | > 100 |  | > 100 |  |  |  |  |  |  |  | > 100 |  |  |  |  |  | 
N#CC(C#N)=Cc1ccc(-c2ccc(-c3nc4ccccc4s3)cc2)o1 | 27.5 | > 100 | 14.3 | 38.5 | 12 | 24.8 | 0.346 | 0.985 |  |  | 4.16 | 14.3 | 17.8 | 51.8 | 9.54 | 22.5 | 4.46 | 38.2 |  | 
COC12C=CC(CC1)c1c(O)ccc(O)c12 (configuration not stated) |  | > 100 |  | > 100 |  | > 100 |  | > 100 |  |  |  |  |  | 35.1 |  |  |  |  |  | 
COC(=O)CCC(=O)N1Cc2cc(C)ccc2N(C(=O)CCC(=O)OC)Cc2cc(C)ccc21 |  | > 100 |  | > 100 |  | > 100 |  |  |  |  |  |  |  | > 100 |  |  |  |  |  | > 100
CC1=CC(=O)c2c(O)cccc2C1=O |  | 3.28 |  | 34.6 |  | 20.4 |  | 13.2 |  |  |  | 3.16 |  | 3.01 |  | 4.75 |  | 2.22 |  | 1.43
CCN1C(=O)N(CC)C2C1NN=c1s/c(=C3\C(=O)N(C(C)C)c4ccccc43)c(=O)n12 (configuration not stated) | 1.07 | > 100 | 0.459 | > 100 | 0.378 | > 57.7 | 0.239 | 0.91 | 0.336 | 40.3 | 0.3 | 3.14 | 0.465 | > 100 | 0.412 | > 100 |  |  | 0.342 | 6.53
C=CCC(N[C@H](CO)C(C)C)c1cn(C(=O)OCC)c2ccccc12 (some centres not stated) | 53.6 | > 100 | 24.9 | 82 | 27.4 | > 100 |  |  | 22.7 | > 100 | 21.8 | 61 | 17.9 | 40.2 | 15.9 | 43.9 | 39.9 | > 100 | 14.1 | 45.6
C=C1C(=O)O[C@H]2C[C@@H](C)[C@@H]3CC(=O)OC[C@@]3(C)CC12 (some centres not stated) |  | 47.8 |  | > 100 |  | > 100 |  |  |  |  |  |  |  | 12 |  |  |  |  |  | 34.8
O=C(CC1Sc2ccccc2NC1=O)Nc1cc(Cl)ccc1Cl (configuration not stated) |  | > 100 |  | > 100 |  | > 100 |  | > 100 |  |  |  |  |  |  |  |  |  |  |  | > 100
COC(=O)c1[nH]c(=S)[nH]c(=O)c1-c1ccc(Cl)cc1 |  | > 50 |  | > 50 |  | > 50 |  | > 50 |  |  |  |  |  | > 50 |  |  |  |  |  | > 50
